Values of other authors in US20190076442A1, “PRESERVATIVE FREE PHARMACEUTICAL COMPOSITION FOR OPHTHALMIC ADMINISTRATION CONTAINING BIMATOPROST AND TIMOLOL” (PHARMATHEN S.A., priority 2016, published 2019).
Where a name gives a salt, the structure may show the parent alone.

Structure (SMILES)	Solubility in ethanol (ethyl alcohol)	Solubility in water	Solubility in chloroform (chloroform)	Solubility in cyclohexane (cyclohexane)	Solubility in ether (ether)	Solubility in methanol (methanol)	Solubility in propylene glycol (propylene glycol)
CCNC(=O)CCC/C=C\C[C@@H]1[C@@H](/C=C/[C@@H](O)CCc2ccccc2)[C@H](O)C[C@@H]1O [Bimatoprost]	very soluble	slightly soluble					
CC(C)(C)NC[C@H](O)COc1nsnc1N1CCOCC1 [Timolol maleate]	soluble	soluble	sparingly soluble	insoluble	insoluble	soluble	sparingly soluble
